# Test results published in patent US6951647B2, “T cell binding ligand peptides and method of inducing a cellular immune response” (Cel-Sci Corporation, priority 2001, dated 2005).
# Where no end group is shown, it is not given here.
# Details: saline (0.15 M NaCl, pH 7.4) or WFI, 0.5-2.0 mg/ml; 2-8, 18-25 or 40 °C; pH 7.4 to 4.5; HPLC
# Procedure: The long range stability of the peptide constructs formed using Peptide G, was carried out with the construct dissolved in saline (0.15 M NaCl, pH 7.4) or in water for injection (WFI) at a concentration of 0.5-2.0 mg/ml and stored frozen soon after preparation.
sequence,measurement,value
DGQEEKAGVVSTGLI [Peptide G′],Long range stability (deamination) of peptide constructs,overcomes the long range stabilization problem of the peptide conjugates
